According to patent US20100160391A1, “Substituted Aminopyridines as Fluorescent Reporters for Amide Hydrolases” (priority 2006, published 2010):

Tests used:
[1] = Comparison of aqueous solubility of substrates (absorbance at 800 nm); type: physicochemical; conditions: 0.1 M phosphate buffer (pH 8.0), 1% ethanol, 37° C.
Procedure: Comparison of aqueous solubility of substrates. The aqueous solubility of the aminopyridine derivatives (e.g., 13, 14) and the 7-aminocoumarin derivative (e.g., 15) was determined in clear 96-well styrene flat-bottom microtiter plates with a Spectra Max M2 spectrophotometer. Different concentrations of the substrates (13, 14 and 15; final concentration: 0.39, 0.78, 1.56, 3.13, 6.25, 12.5, 25, 50, 100, or 200 μM) in 200 μl 0.1 M sodium phosphate buffer (1% ethanol; pH 8.0) were used and the absorbance was recorded at a wavelength of 800 nm at 37° C. The measurements were performed in three replicates for each concentration.

[2] = molecular target: T1, human FAAH, microsomes from FAAH cells (Homo sapiens, UniProt O00519); assay: Specific activity, microsomes from FAAH cells; type: biochemical
T1 construct: made in house; host or cells: Trichoplusia ni High Five cells infected with recombinant baculovirus Ac-hFAAH; microsomal fraction
T1 sequence (O00519 1-579): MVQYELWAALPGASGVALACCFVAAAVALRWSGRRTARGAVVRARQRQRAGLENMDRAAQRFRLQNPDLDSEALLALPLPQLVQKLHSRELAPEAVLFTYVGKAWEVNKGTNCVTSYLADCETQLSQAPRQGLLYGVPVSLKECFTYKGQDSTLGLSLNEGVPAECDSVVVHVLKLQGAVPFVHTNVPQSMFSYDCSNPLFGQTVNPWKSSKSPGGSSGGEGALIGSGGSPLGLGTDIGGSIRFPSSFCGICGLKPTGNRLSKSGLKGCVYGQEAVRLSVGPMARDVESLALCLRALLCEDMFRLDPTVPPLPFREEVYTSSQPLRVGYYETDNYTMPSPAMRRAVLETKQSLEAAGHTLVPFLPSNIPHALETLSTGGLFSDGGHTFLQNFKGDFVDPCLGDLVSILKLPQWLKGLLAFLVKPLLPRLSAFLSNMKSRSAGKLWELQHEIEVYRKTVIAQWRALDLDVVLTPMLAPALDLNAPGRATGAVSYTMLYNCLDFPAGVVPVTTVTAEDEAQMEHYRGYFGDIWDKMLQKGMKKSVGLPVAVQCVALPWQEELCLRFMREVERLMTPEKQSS
Procedure: Preparation of recombinant human FAAH. Transgenic expression of the human FAAH in a baculovirus system was performed by following the method described in Nishi et al., Arch. Biochem. Biophys., 445:115-123 (2006). The cDNA encoding human FAAH (GenBank Accession No. NM_001441) was amplified by PCR using a human liver cDNA library (Invitrogen; Carlsbad, Calif.) as a template. The primer pair was 5′-[…]-3′ and 5′-[…]-3′. BglII and EcoRI endonuclease sites (underlined) were incorporated just upstream of the start codon and downstream of the stop codon of the coding sequence of FAAH, respectively. The PCR products were cloned into a pCR2.1 vector (Invitrogen) and the nucleotide sequence was verified by DNA sequencing. The cDNA fragments were then excised and directionally ligated to the BglII and EcoRI sites of the baculovirus transfer vector pAcUW21 (Lopez-Ferber et al., Baculovirus transfer vectors, in “Baculovirus Expression Protocols,” Richardson (Ed.), pp 25-63, Humana Press, Totowa, N.J., 1995). Recombinant baculoviruses harboring the human FAAH gene, Ac-hFAAH, were generated by co-transfection of Spodoptera frugiperda-derived Sf21 cells with the recombinant transfer vector plasmid and Bsu36I-cleaved BacPAK6 viral DNA (Clontech Laboratories; Mountain View, Calif.) as described in O'Reilly et al., Baculovirus Expression Vectors: A Laboratory Manual, Oxford University Press, New York, 1992. Trichoplusia ni-derived High Five cells (1×10^6 cells/ml) were inoculated with a high titer of Ac-hFAAH. At 72 hours post-infection, the infected cells were harvested by centrifugation at 2,000×g for 20 min at 4° C. and suspended in 50 mM Tris-HCl (pH 8.0) containing 150 mM NaCl, 1 mM EDTA, 1 μM pepstatin, 100 μM leupeptin, and 0.1 mg/ml aprotinin. The cell suspension was then homogenized using a Polytron homogenizer and centrifuged at 10,000×g for 20 min at 4° C. The microsomal fraction was collected by ultracentrifugation of the supernatant at 100,000×g for 60 min at 4° C. The pellet was resuspended in 20 mM Tris-HCl (pH 8.0) containing 10% (w/v) glycerol and 1% (w/v) Triton-X 100 and stored at −80° C. until use.
(§1) Comparison of the lowest detection limits of protein concentration of FAAH toward colorimetric and fluorescent substrates. In general, all assays were performed in 96-well styrene flat-bottom microtiter plates with a Spectra Max M2 spectrophotometer at 37° C. for […]. The total volume of each well was 201 μl consisting of 0.1 M sodium phosphate buffer (pH 8.0) (190 μl) containing 1% glycerol and 0.1% Triton-X 100, stock or diluted protein solution (10 μl), and the substrate solution (1 μl) in ethanol (final concentration 200 μM for 10, 11, 13 or 14) or in DMSO (final concentration 25 μM for 12, 15, or 16; 50 μM for 17). The lowest detection limits of microsomal fatty acid amide hydrolase (FAAH) by substrates were determined by the fact that the signal at 10 min after kinetic measurements are equal to or over three times the noise or basal line at 0 min. Colorimetric substrate (16) assays were performed in clear 96-well microtititer plates using an absorbance wavelength at 382 nm. The fluorescent substrates containing 5-amino-2-methoxypyridine (e.g., 10, 13) were measured at an excitation wavelength (302 nm), emission wavelength (396 nm), and auto cutoff wavelength (325 nm). Similarly, the fluorescent substrates containing 5-amino-2-methoxy-6-methylpyridine (e.g., 11, 14, and 17) were measured at an excitation wavelength (304 nm), emission wavelength (392 nm), and an auto cutoff wavelength of 325 nm. In addition, an excitation wavelength (366 nm), emission wavelength (496 nm), and auto cutoff wavelength (495 nm) were used for the substrates (e.g., 12 and 15) containing 7-amino-4-trifluoromethyl coumarin.
Specific activity determination. The assays for specific activities were performed as described above for the sensitivity assay. […]

[3] = system: amidases, human liver microsomes; assay: Specific activity, human liver microsomes; type: biochemical; conditions: pH 8.0, 37° C.; NM = not measurable at the same protein concentration as other substrates
Procedure: as §1
Specific activity determination. The assays for specific activities were performed as described above for the sensitivity assay. The specific activity presented is based on the following: 1) the signal after a 10 min enzymatic reaction was at least 3 fold the baseline signal at 0 min, and 2) the amount of hydrolyzed substrate during a 10 min period was less than 10% of the total amount of the substrate added. To correct for protein-induced fluorescence quenching, a standard curve of 5-amino-2-methoxypyridine (6) or 5-amino-2-methoxy-6-methylpyridine (8) was constructed in the presence of the same protein concentration used for the assay of that enzyme.

## CCCCCCCC(=O)Nc1ccc(OC)nc1 [Compound 13, N-(6-methoxypyridin-3-yl) octanamide]
[1]
  aqueous solubility compared with coumarin substrate (15): much higher solubility
[2]
  enhancement of activity, microsomes from FAAH-expressing cells compared with High Five cells: 254 times
[2]; Table 4
  preference of FAAH for substrate (13) over (14), specific activity: 10 times
[2]; pH 8.0, 37° C., NM = not measurable at the same protein concentration as other substrates
  Specific activity, Microsomes from FAAH cells: 202.6 ± 3.3 nmol/min/mg protein
[3]
  Specific activity, Human liver microsomes: 0.46 ± 0.06 nmol/min/mg protein
